Measurements reported in patent publication US20070141687A1, “Increase in stress tolerance with ascorbic acid during fermentation” (priority 2005, published 2007).
Where two headings read alike, the source gives them in different places.

How the values were obtained:
YML007w yeast [1] = experiment: Growth (OD660) of yap1-deleted yeast under H2O2 oxidative stress with ascorbic acid in the medium; format: cell-based, S. cerevisiae; conditions: 0.8 or 1.0 mM H2O2; ascorbic acid added at T=0 at 15 mg/L; minimal medium 2% glucose
Procedure: FIG. 3A. […] Ascorbic acid was added at T=0 at a final concentration of 15 mg/L. BY4742 (▴); YML007w (◯).
FIG. 3B. […] Ascorbic acid was added at T=0 at a final concentration of 15 mg/L. BY4742 (▴); YML007w (◯).

[2] = system: S. cerevisiae strain NRRL Y-30696; experiment: Growth and lactic acid production of lactic acid producing yeast with exogenous ascorbic acid; format: cell-based; conditions: minimal glucose medium, 2.78 g/L CaCO3, 0, 0.16, 0.3 or 0.6 g/L ascorbic acid
Procedure: S. cerevisiae strain NRRL Y-30696 was inoculated in minimal glucose medium and 2.78 g/L CaCO3 or minimal glucose medium with 2.78 g/L CaCO3 and 0.16, 0.3, or 0.6 g/L ascorbic acid. OD660 (open symbols) and lactic acid (closed symbols) were monitored with time. The pH dropped in each case to 2.5 at 67 hours.

[3] = system: GRFc, BY4741, and CEN.PK 113-5D yeast strains; experiment: Growth of wild type yeast strains in medium containing lactic acid at pH 3 with added ascorbic acid; conditions: 2xYNB medium, lactic acid 40 g/l, pH3
Procedure: Ascorbic acid was added to the medium at the concentrations shown.

YML007w yeast [4] = system: YML007w yeast
Excerpt: Yeast strains used were S. cerevisiae GRF18U (Brambilla, L. et al., 1999, FEMS Microb. Lett. 171, 133-140), S. cerevisiae GRFc (Brambilla et al. 1999 FEMS Microb. Lett. 171: 133-140), S. cerevisiae BY4742 (MATα; his3; leu2, lys2; ura3, EuroScarf Accession No. Y10000), S. cerevisiae YML007w (BY4742; MATα; his3; leu2, lys2; ura; YML007w::KanMX4 (the yap1 deleted strain) EuroScarf Accession No. Y10569); CEN.PK 113-5D (MATα ura3-52; cir+) (see, for example, VanDijken et al. (2000) Enzyme Microb. Technol. 26, 706-714); and BY4741 (MATα; his3; leu2; met 15; ura3, Euroscarf Accession No. Y00000), or strains derived from them through transformation with the different developed plasmids. All strains were cultivated in shake flasks in minimal medium (0.67% w/v YNB (Difco Laboratories, Detroit, Mich. #919-15), 2% w/v glucose or mannose, with addition of the appropriate amino acids or adenine or uracil, respectively, to 50 μL-^1) and/or the appropriate antibiotic (G418 or hygromicin to 500 mg/l and 400 mg/l, respectively) under standard conditions (shaking at 30° C.). The initial optical density at 660 nm was about 0.05 for ascorbic acid determination, and 0.1 for the kinetics of the recovery from oxidative stress.
The yeast strains were grown on mineral medium (2% glucose, 0.67% YNB) starting from an OD^660 of 0.1. […]

Row | SMILES | growth sensitivity of YML007w yeast to H2O2 (OD660) (YML007w yeast [1]) | lactic acid production [2] | growth as measured by OD660 ([2]; pH dropped to 2.5 at 67 hours) | dose dependence of the effect of ascorbic acid on growth [3] | effect on growth inhibition by lactic acid (OD660) ([3]; zero or increasing ascorbic acid) | growth of YML007w yeast host (YML007w yeast [4]; 0.8 mM hydrogen peroxide in medium) | growth of YML007w yeast host (YML007w yeast [4]; 1 mM hydrogen peroxide in medium)
1 | O=C1O[C@H]([C@@H](O)CO)C(O)=C1O [ascorbic acid, L-ascorbic acid] | can be rescued | equivalent at each level | increased with increasing ascorbic acid | dose dependent | negative effects of lactic acid on growth can be overcome |  | 
2 | OO [hydrogen peroxide] |  |  |  |  |  | strongly delayed | completely impaired
